# Source: patent publication US20080107661A1, “MUC1 and ABL” (Dana-Farber Cancer Institute, Inc., priority 2006, published 2008)
# Assays:
# Assay type in all cases: cell-based, human
# c-Abl [1] = test: Nuclear and cytosolic c-Abl in HeLa/vector and HeLa/MUC1 cells after genotoxic agents (subcellular fractionation, immunoblot); conditions: 2 hours
# Text: (§1) Cell culture. Human HeLa cervical cancer cells, HCT116/vector (HCT116 colorectal carcinoma cells stably transfected with an empty vector), HCT116/MUC1 (HCT116 colorectal carcinoma cells stably transfected with an expression vector encoding a MUC1 polypeptide), HCT116/MUC1(Y46F) (HCT116 colorectal carcinoma cells stably transfected with an expression vector encoding a mutant MUC1 polypeptide containing an amino acid substitution at position 46 changing a tyrosine (Y) to phenylalanine (F)) colon cancer cells (Ren et al., (2002) J. Biol. Chem. 277: 17616-17622) and 293 cells were cultured in Dulbecco's modified medium with 10% heat-inactivated fetal bovine serum, 100 units/ml penicillin, 100 μg/ml streptomycin and 2 mM L-glutamine. Human ZR-75-1/vector (ZR-75-1 breast cancer cells stably transfected with an empty vector) and ZR-75-1/MUC1siRNA (ZR-75-1 breast cancer cells stably transfected with an expression vector encoding an siRNA specific for MUC1) breast cancer cells (Ren et al., (2004) Cancer Cell 5:163-175) were grown in RPMI1640 medium containing 10% heat-inactivated fetal bovine serum and antibiotics. Cells were treated with 1 μM adriamycin (ADR; Calbiochem), 100 μM cisplatin (CDDP; Sigma) or 10 μM STI571 (Gleevec; Novartis, Basel, Switzerland).
# (§2) Subcellular fractionation. Nuclear fractions were prepared as described (Kharbanda et al., (1996) Cancer Res. 56:3617-3621). Cytosolic fractions were prepared as described (Hill et al., (2004) EMBO J. 23:2134-2145). Cell membrane fractions were prepared with the Plasma Membrane Extraction Kit (BioVision Research Products, Mountain View, Calif.). Mitochondria were purified as described (Ren et al., (2004) Cancer Cell 5:163-175; Ren et al., (2006) Oncogene 25:20-31).
# (§3) Immunoprecipitations and immunoblot analysis. Cell lysates were prepared as described (Kharbanda et al., (1995) Nature 376:785-788); Yoshida et al., (2005) Nat. Cell Biol. 7:278-285). Soluble proteins were incubated with anti-MUC1-N (Kufe et al., (1984) Hybridoma 3:223-232), anti-MUC1-C (Ab5; Neomarker, Montreal, Quebec), anti-Flag (Sigma, St. Louis, Mo.), anti-c-Abl (Ab3; Oncogene, San Diego, Calif.) or anti-14-3-3 (Abcam Inc., Cambridge, Mass.) antibodies for 2 hours at 4° C., followed by precipitation with protein G-Sepharose beads for 1 hour. […] Intensity of the signals was determined by densitometric scanning. Statistical significance was determined by the Student's t-test.
# c-Abl [2] = test: Nuclear and cytosolic c-Abl in ZR-75-1/vector and ZR-75-1/MUC1siRNA cells after CDDP (fractionation, immunoblot)
# Text: as §1, §2
# Immunoprecipitations and immunoblot analysis. Cell lysates were prepared as described (Kharbanda et al., (1995) Nature 376:785-788); Yoshida et al., (2005) Nat. Cell Biol. 7:278-285). […] Intensity of the signals was determined by densitometric scanning. Statistical significance was determined by the Student's t-test.
# c-Abl [3] = test: Analysis of c-Abl kinase activity (anti-c-Abl immunoprecipitates, Crk(120-225), [γ-32P]ATP); conditions: HCT116 cells; CDDP, 1 hour
# Description: Analysis of c-Abl kinase activity. Nuclear lysates were immunoprecipitated with anti-c-Abl (K-12) antibodies as described (Kharbanda et al., (1997) Nature 386:732-735). The precipitates were resuspended in kinase buffer (20 mM HEPES, pH 7.4, 10 mM MgCl2) containing [γ-^32P]ATP, GST-Crk(120-225) for 20 minutes at 30° C. The reaction products were analyzed by SDS-PAGE and autoradiography.
# MUC1-C = test: Nuclear MUC1-C levels in HCT116/MUC1 cells after CDDP (immunoblot, densitometric scanning); conditions: CDDP, 0, 1, 2 and 4 hours, over untreated cells
# Description: as §3, with “Subcellular fractionation. Nuclear fractions were prepared as described (Kharbanda et al., (1996) Cancer Res. 56:3617-3621). Cytosolic fractions were prepared as described (Hill et al., (2004) EMBO J. 23:2134-2145). Cell membrane fractions were prepared with the Plasma Membrane Extraction Kit (BioVision Research Products, Mountain View, Calif.). Mitochondria were purified as described (Ren et al., (2004) Cancer Cell 5:163-175; Ren et al., (2006) Oncogene 25:20-31). Immunoprecipitations” for “Immunoprecipitations”
structure (smiles),measurement,setting,value
"[NH2][Pt]([NH2])([Cl])[Cl] [CDDP, cisplatin]",cytosolic c-Abl,"c-Abl [1]; HeLa/vector cells, CDDP",decrease in cytosolic c-Abl
same,nuclear targeting of c-Abl,"c-Abl [1]; HeLa/vector versus HeLa/MUC1 cells, 100 μM CDDP",MUC1 attenuates nuclear targeting of c-Abl
same,cytosolic c-Abl,c-Abl [2]; ZR-75-1/MUC1siRNA cells,decreased
same,increase of nuclear targeting of c-Abl,"c-Abl [2]; ZR-75-1/MUC1siRNA cells silenced for MUC1, 2 and 4 hours",about 6 fold
same,nuclear targeting of c-Abl,"c-Abl [2]; ZR-75-1/vector cells, 2 and 4 hours",no detectable targeting of c-Abl to the nucleus
same,c-Abl kinase activity,c-Abl [3],induction of c-Abl activity
same,increase in nuclear MUC1-C levels,MUC1-C,two-fold
